Series [1] in a line: Hydrolytic stability of acylated derivatives (data not shown). Format: physicochemical. How it is done:
A cursory study of the effect of capping the phenol of 4 via acylation was undertaken. The acylated derivatives 7 were prepared and tested. […] The intrinsic activity of intact 7a cannot yet be ruled out, and this interesting phenomenon is currently under study.

Another series relates to T. gondii Me-49 oocysts. As to the kind of experiment: Mouse model of T. gondii oocyst infection, Me-49. Format: in vivo, mice. How it is done: (§1) Compounds 14a and 14b were tested for efficacy against T. gondii in the oocyst stage following per oral challenge in mice. Mice were infected by oral gavage with ME49 or TgGoatUS4 oocysts. Mice were treated with either 100 mg/kg or 25 mg/kg) of test substance.
(§2) Thus, compounds 14a and 14b were tested for efficacy in a mouse model of T. gondii oocyst infection. The oocyst form of the parasite is excreted by cats and is often the form by which people and other animals become infected. This oocyst infection in mice is very virulent, and fatal. Mice were infected by oral gavage with ME49 or TgGoatUS4 oocysts. Mice were treated with either a high dose (100 mg/kg) or low dose (25 mg/kg) of 14a or 14b 1 mL suspension via oral gavage, or were not treated. […] Treatment with 14a and 14b increased survival by 1 day (Table 6, FIGS. 8 and 9).
(§3) HLA B07 transgenic mice were produced at Pharmexa-Epimmune (San Diego, Calif., USA) and bred at the University of Chicago. […]
(§4) Oocysts were obtained by feeding infected tissues of Swiss Webster mice to cats, sporulated in 2% sulfuric acid on a shaker for one week, and stored at 4° C. until used (Dubey 2010). Oocysts were counted in a disposable hemocytometer and diluted 10-fold from 10^−1 to 10^−7 to reach an end point of ≅1 oocyst. […]

Series [2] in a line: Uninfected mice dosed with compound alone (groups of the oocyst study). To be noted: for Day of Death: challenge None; for symptoms of uninfected mice dosed with compound alone: 100 or 25 mg/kg oral gavage. Format: in vivo. How it is done: as §2
Five groups of B7 female mice weighing approximately 25 g were used. Group 1 received only 14a (100 mg/kg, 2.5 mg/mL, 1.0 mL) by oral gavage. Group 2 received only 14a (25 mg/kg, 0.5 mg/mL, 1.0 mL) by oral gavage. Group 3 received 14a (100 mg/kg, 2.5 mg/mL, 1.0 mL) and 100 ME49 oocysts by oral gavage. Group 4 received 14a (25 mg/kg, 0.5 mg/mL, 1.0 mL) and 100 ME49 oocysts by oral gavage. Group 5 received only 100 ME49 oocysts by oral gavage.
Five groups of B7 female mice weighing approximately 25 g were used. Group 1 received only 14b (100 mg/kg, 2.5 mg/mL, 1.0 mL) by oral gavage. Group 2 received only 14b (25 mg/kg, 0.5 mg/mL, 1.0 mL) by oral gavage. Group 3 received 14b (100 mg/kg, 2.5 mg/mL, 1.0 mL) and 100 TgGoatUS4 oocysts by oral gavage. Group 4 received 14a (25 mg/kg, 0.5 mg/mL, 1.0 mL) and 100 TgGoatUS4 oocysts by oral gavage. Group 5 received only 100 TgGoatUS4 oocysts by oral gavage.

Series [3] deals with T. gondii TgGoatUS4 oocysts. As to the kind of experiment: Mouse model of T. gondii oocyst infection, TgGoatUS4. Format: in vivo, mice. How it is done:
as §1, §2, §3, §4

`O=C(Oc1ccc(Cl)cc1C(=O)Nc1ccc([N+](=O)[O-])cc1Cl)c1ccccc1` [Compound 7a, 4-chloro-2-((2-chloro-4-nitrophenyl)carbamoyl)phenyl benzoate]: the stability against hydrolysis result in series [1] is “hydrolytically labile under certain conditions”.
In the series on T. gondii Me-49 oocysts (Me-49 oocysts, 100 or 25 mg/kg), `CN(CC(=O)NN)C(=O)Oc1ccc(Cl)cc1C(=O)Nc1ccc([N+](=O)[O-])cc1Cl.Cl` [Compound 14a, 4-chloro-2-((2-chloro-4-nitrophenyl)carbamoyl)phenyl (2-hydrazinyl-2-oxoethyl)(methyl)carbamate hydrochloride] showed an increase of survival of 1 days. Moreover, the “survival of mice infected with T. gondii oocysts, in words” value in the series with T. gondii Me-49 oocysts (mouse, in vivo) is recorded as “effective at prolonging slightly the survival”. Besides, the “Day of Death” value in series [2] (25 mg/kg oral gavage) and in series [2] (100 mg/kg oral gavage) was “None” each time. Also, the “symptoms of uninfected mice dosed with compound alone” value in series [2] is “remained asymptomatic”.
In series [3] (TgGoatUS4 oocysts, 100 or 25 mg/kg), `CN(CC(=O)NN)C(=O)Oc1ccc(Cl)cc1C(=O)Nc1ccc(C(F)(F)F)cc1C(F)(F)F.Cl` [Compound 14b, 2-((2,4-bis(trifluoromethyl)phenyl)carbamoyl)-4-chlorophenyl (2-hydrazinyl-2-oxoethyl)(methyl)carbamate hydrochloride] returned an increase of survival of 1 days. For the same compound, the “survival of mice infected with T. gondii oocysts, in words” value in series [3] (mouse, in vivo) is “effective at prolonging slightly the survival”. The “Day of Death” value in series [2] (25 mg/kg oral gavage) and in series [2] (100 mg/kg oral gavage) was “None” each time. In addition, in series [2], the “symptoms of uninfected mice dosed with compound alone” value is reported as “remained asymptomatic”.

For the origin of these results see patent US20130324555A1, “Method of use of pharmaceutical formulations for the treatment of apicomplexan diseases in animals” (priority 2012, published 2013).
